Measured values as given in ChEMBL document CHEMBL1136079, “Molecular design, synthesis, and structure-Activity relationships leading to the potent and selective p56(lck) inhibitor BMS-243117” (Bioorg Med Chem Lett, 2003).

Legend:
[1] = target: Tyrosine-protein kinase Lck (Homo sapiens, UniProt P06239); test: In vitro inhibition of phosphorylation of an exogenous substrate by human p56 Lck tyrosine kinase expressed as a His-tagged protein in insect cells using a baculovirus expression system
[2] = Inhibition of anti-CD3, anti-CD28 induced PBL T-cell proliferation; details: Homo sapiens

Sequence of Tyrosine-protein kinase Lck (P06239 whole entry): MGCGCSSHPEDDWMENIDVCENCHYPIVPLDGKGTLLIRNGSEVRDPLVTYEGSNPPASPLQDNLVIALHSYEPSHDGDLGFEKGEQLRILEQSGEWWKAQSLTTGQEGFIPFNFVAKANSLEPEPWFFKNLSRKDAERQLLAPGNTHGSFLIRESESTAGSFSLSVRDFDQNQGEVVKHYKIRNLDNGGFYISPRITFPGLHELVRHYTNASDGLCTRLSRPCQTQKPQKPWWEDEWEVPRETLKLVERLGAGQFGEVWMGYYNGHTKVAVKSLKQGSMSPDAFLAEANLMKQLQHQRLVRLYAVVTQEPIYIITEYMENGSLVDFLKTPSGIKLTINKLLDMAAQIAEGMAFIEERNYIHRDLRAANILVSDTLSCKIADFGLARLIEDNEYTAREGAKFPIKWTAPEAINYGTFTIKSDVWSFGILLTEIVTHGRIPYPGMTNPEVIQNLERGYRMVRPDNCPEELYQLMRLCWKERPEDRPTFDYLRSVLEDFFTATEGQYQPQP

| SMILES | IC50 [1] [nM] | IC50 [2] [nM] |
| --- | --- | --- |
| Cc1cc(C)c(NC(=O)c2ccc3nc(NC(=O)OC(C)(C)C)sc3c2)c(C)c1Br | > 12500 |  |
| Cc1cccc(Cl)c1NC(=O)c1ccc2nc(NC(=O)NC3CC3)sc2c1 | 90 |  |
| Cc1cccc(Cl)c1NC(=O)c1ccc2nc(NC(=O)NCc3ccco3)sc2c1 | 39 |  |
| Cc1cc(C)c(NC(=O)c2ccc3nc(NC(=O)NC4CC4)sc3c2)c(C)c1 | 300 |  |
| Cc1cc(C)c(NC(=O)c2ccc3nc(N)oc3c2)c(C)c1 | 23000 |  |
| Cc1cc(C)c(NC(=O)c2cccc3sc(NC(=O)OC(C)(C)C)nc23)c(C)c1 | > 12500 |  |
| Cc1cc(C)c(NC(=O)c2ccc3nc(NC(=O)OC(C)(C)C)sc3c2)c(C)c1 | 290 |  |
| Cc1cccc(C)c1NC(=O)c1ccc2nc(NC(=O)C(C)C)sc2c1 | 1800 |  |
| CCC(NC(=O)Nc1nc2ccc(C(=O)Nc3c(C)cccc3Cl)cc2s1)c1ccccc1 (configuration not stated) | 19 |  |
| Cc1ccccc1CC(=O)Nc1nc2ccc(C(=O)Nc3c(C)cccc3Cl)cc2s1 | 565 |  |
| CC(=O)c1cccc(O)c1NC(=O)c1ccc2nc(NC(=O)OC(C)(C)C)sc2c1 | > 12500 |  |
| Cc1cccc(Cl)c1NC(=O)c1ccc2nc(NC(=O)NCCN(C)C)sc2c1 | 30 |  |
| CCCCNC(=O)Nc1nc2ccc(C(=O)Nc3c(C)cc(C)cc3C)cc2s1 | 330 |  |
| Cc1cc(C)c(NC(=O)c2ccc3nc(NC(=O)NCc4ccccc4)sc3c2)c(C)c1 | 1730 |  |
| Cc1cccc(Cl)c1NC(=O)c1ccc2nc(NC(=O)Nc3ccccn3)sc2c1 | 2010 |  |
| Cc1cc(C)c(NC(=O)c2cc(C)c3nc(NC(=O)OC(C)(C)C)sc3c2)c(C)c1 | 5600 |  |
| Cc1cccc(Cl)c1NC(=O)c1ccc2nc(NC(=O)NCCC3CCCN3C)sc2c1 (configuration not stated) | 7 | 960 |
| Cc1cc(C)c(NC(=O)c2ccc3nc(NC(=O)OC(C)(C)C)sc3c2)c(Br)c1 | 200 |  |
| Cc1cc(C)c(NC(=O)c2ccc3[nH]c(NC(=O)OC(C)(C)C)nc3c2)c(C)c1 | 3230 |  |
| Cc1cccc(Cl)c1NC(=O)c1ccc2nc(NC(=O)NCc3ccc(F)cc3)sc2c1 | 87 |  |

| SMILES | IC50 [1] [nM] | IC50 [2] [nM] |
| --- | --- | --- |
| Cc1cc(C)c(NC(=O)c2ccc3nc(NC(=O)c4ccccc4)sc3c2)c(C)c1 | > 12500 |  |
| CCC(C)(C)NC(=O)Nc1nc2ccc(C(=O)Nc3c(C)cccc3C)cc2s1 | 80 |  |
| Cc1cccc(Cl)c1NC(=O)c1ccc2nc(NC(=O)NC3CCCC3)sc2c1 | 45 |  |
| Cc1cccc(Cl)c1NC(=O)c1ccc2nc(NC(=O)C3CCC3)sc2c1 | 666 |  |
| Cc1cc(Br)cc(C)c1NC(=O)c1ccc2nc(NC(=O)OC(C)(C)C)sc2c1 | 110 |  |
| Cc1cccc(Cl)c1NC(=O)c1ccc2nc(NC(=O)C3CC3)sc2c1 | 9 |  |
| COC(=O)c1cc(C)c(NC(=O)c2ccc3nc(NC(=O)OC(C)(C)C)sc3c2)c(C)c1 | 3120 |  |
| Cc1cccc(Cl)c1NC(=O)c1ccc2nc(NC(=O)Nc3ccc(F)cc3)sc2c1 | 123 |  |
| Cc1cccc(Cl)c1NC(=O)c1ccc2nc(NC(=O)C3CCCO3)sc2c1 (configuration not stated) | 272 |  |
| Cc1cc(C)c(NC(=O)c2ccc3nc(NC(=O)C4CC4)sc3c2)c(C)c1 | 20 |  |
| Cc1cc(C)c(NC(=O)c2ccc3[nH]c(N)nc3c2)c(C)c1 | > 12500 |  |
| Cc1cccc(Cl)c1NC(=O)c1ccc2nc(NC(=O)NC3CC(C)(C)NC(C)(C)C3)sc2c1 | 4 | 2800 |
| Cc1cccc(Cl)c1NC(=O)c1ccc2nc(NC(=O)C3CC3C)sc2c1 (configuration not stated) |  | 1580 |
| Cc1cc(C)c(NC(=O)c2cccc3nc(NC(=O)OC(C)(C)C)sc23)c(C)c1 | > 12500 |  |
| CCC(C)(C)NC(=O)Nc1nc2ccc(C(=O)Nc3c(C)cccc3Cl)cc2s1 | 55 |  |
| Cc1cc(C)c(NC(=O)c2ccc3nc(NC(=O)OC(C)(C)C)sc3n2)c(C)c1 | > 12500 |  |
| Cc1cccc(C)c1NC(=O)c1ccc2nc(NC(=O)NC3CC3)sc2c1 | 90 |  |
| Cc1cccc(Cl)c1NC(=O)c1ccc2nc(NC(=O)C3CC3CN(C)C)sc2c1 (trans isomer) |  | 3530 |
| Cc1cccc(Cl)c1NC(=O)c1ccc2nc(NC(=O)C3CC3CO)sc2c1 (trans isomer) |  | 1450 |

Second part, led by results:

| IC50 [1] [nM] | SMILES | IC50 [2] [nM] |
| --- | --- | --- |
| 70 | Cc1cc(C)c(NC(=O)c2ccc3nc(NC(=O)NC(C)(C)C)sc3c2)c(C)c1 |  |
| 310 | Cc1cc(CO)cc(C)c1NC(=O)c1ccc2nc(NC(=O)OC(C)(C)C)sc2c1 |  |
| 90 | Cc1cccc(C)c1NC(=O)c1ccc2nc(NC(=O)OC(C)(C)C)sc2c1 |  |
| 700 | Cc1cc(C)c(NC(=O)c2ccc3nc(NC(=O)C(C)C)sc3c2)c(C)c1 |  |
| 11 | Cc1cccc(C)c1NC(=O)c1ccc2nc(NC(=O)C3CC3C)sc2c1 (configuration not stated) |  |
| > 3130 | Cc1cccc(Cl)c1NC(=O)c1ccc2nc(NC(=O)Nc3ncccn3)sc2c1 |  |
| 3200 | Cc1cc(C)c(NC(=O)c2sc(N)nc2C)c(C)c1 |  |
| 70 | Cc1cccc(Cl)c1NC(=O)c1ccc2nc(NC(=O)OC(C)(C)C)sc2c1 |  |
| 7250 | Cc1cc(C)c(NC(=O)c2ccc3nc(NC(=O)OC(C)(C)C)oc3c2)c(C)c1 |  |
| 3000 | Cc1cc(C)c(NC(=O)c2sc(NC(=O)OC(C)(C)C)nc2C)c(C)c1 |  |
| 15000 | Cc1cc(C)c(NC(=O)c2ccc3nc(N)sc3c2)c(C)c1 |  |
| 100 | Cc1cccc(C)c1NC(=O)c1ccc2nc(NC(=O)NC(C)(C)C)sc2c1 |  |
| 4 | Cc1cccc(Cl)c1NC(=O)c1ccc2nc(NC(=O)NC(C)(C)C)sc2c1 | 1100 |
| 4270 | Cc1cccc(Br)c1NC(=O)c1ccc2nc(NC(=O)OC(C)(C)C)sc2c1 |  |
| > 12500 | Cc1cc(Br)ccc1NC(=O)c1ccc2nc(NC(=O)OC(C)(C)C)sc2c1 |  |
| > 12500 | COc1cccc(OC)c1NC(=O)c1ccc2nc(NC(=O)OC(C)(C)C)sc2c1 |  |
| > 12500 | Cc1cc(C)c(NC(=O)c2ccc3sc(NC(=O)OC(C)(C)C)nc3c2)c(C)c1 |  |
| 15 | Cc1cccc(C)c1NC(=O)c1ccc2nc(NC(=O)C3CC3)sc2c1 |  |
| > 12500 | Cc1cc(C)c(NC(=O)c2ccc3nc(NC(=O)OC(C)(C)C)sc3c2)c(Br)c1C |  |
| > 12500 | Cc1cc(C)c(NC(=O)c2ccc3nc(N)sc3n2)c(C)c1 |  |
| > 12500 | Cc1ccc(C(C)C)c(C)c1NC(=O)c1ccc2nc(NC(=O)OC(C)(C)C)sc2c1 |  |
| > 12500 | Cc1cccc(CCO)c1NC(=O)c1ccc2nc(NC(=O)OC(C)(C)C)sc2c1 |  |
| 4400 | Cc1cc(C)c(NC(=O)c2ccc3nc(NC(=O)OC(C)(C)C)sc3c2Cl)c(C)c1 |  |
| > 12500 | Cc1cc(C)c(NC(=O)c2cc3sc(NC(=O)OC(C)(C)C)nc3cc2Cl)c(C)c1 |  |
| > 12500 | COc1cc(C(=O)Nc2c(C)cc(C)cc2C)nc2sc(NC(=O)OC(C)(C)C)nc12 |  |
